The subject of data set [1] is Zymoseptoria tritici (the causal agent of wheat leaf blotch). The data set is described as follows: Test B: preventive spray on wheat seedlings, wheat leaf blotch, visual disease rating. Conditions: Zymoseptoria tritici, 456 h, wheat seedlings; for pest or weed control at 250 ppm: 250 ppm test suspension, 100 = 100% disease control. Format: in vivo. Summed up: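 This is a preventive test: spray application preceded Zymoseptoria tritici spore inoculation by one day. Test suspensions were in acetone/water with 250 ppm PEG400 surfactant, at the listed ppm rate. After 48 h saturated humidity at 24° C and 17 days at 20° C, visual ratings scored control from 0 to 100%.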

Data set [2] has as its system Phakopsora pachyrhizi (the causal agent of Asian soybean rust). Description: Test A: preventive spray on soybean seedlings, Asian soybean rust, visual disease rating. Format: in vivo. Conditions: Phakopsora pachyrhizi, 216 h, soybean seedlings, 100 = 100% disease control, 0 = no control; for pest or weed control at 10 ppm: 10 ppm test suspension. Summed up: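 Preventive test: soybean seedlings received a run-off spray of compound suspended at the set ppm in 50/50 acetone/water plus 250 ppm PEG400, and one day later a P. pachyrhizi spore inoculum. Visual scoring (0 none to 100 full disease control) followed 24 h saturated incubation and 8 days' growth chamber, both at 22° C.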

For data set [3] the test system is unchanged. Description: Test E: compounds alone and mixtures sprayed on soybean seedlings, Asian soybean rust, observed and Colby-expected disease control. Format: in vivo. Summed up: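 Soybean seedlings were sprayed to run-off with compounds or mixtures in ppm. Technical materials were applied in acetone/water with 250 ppm Trem 014; formulated products were applied in water. Plants were inoculated with Phakopsora pachyrhizi spores the next day, held 24 h saturated at 22° C, then 8 days at 22° C. Visual % disease control is the mean of four plants, and Colby-expected values are given for mixtures.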

For data set [4], the system named is Puccinia recondita f. sp. tritici (the causal agent of wheat leaf rust). The data set is described as follows: Test C: preventive spray on wheat seedlings, wheat leaf rust, visual disease rating. In kind it is in vivo. Conditions: Puccinia recondita, 168 h, wheat seedlings; for pest or weed control at 10 ppm: 10 ppm test suspension. The gist of the method: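 Wheat seedlings sprayed to run-off with compound in acetone/water (50/50) with 250 ppm PEG400, then inoculated with spores the following day. After 24 h saturated humidity at 20° C. and 6 days in growth chamber at 20° C., disease rated visually as % control relative to untreated controls.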

Setting [5] is: 100 = 100% disease control, 0 = no control.
[6] abbreviates: Phakopsora pachyrhizi, Compound 511 alone, read-out: Test E Obsd.
Setting [7] is: Phakopsora pachyrhizi, applied alone, read-out: Test E Obsd.
Where [8] appears, read: Phakopsora pachyrhizi, Compound 512 alone, read-out: Test E Obsd.

Structures are written as SMILES. Like-named read-outs stand apart in the source and are kept apart here.

As to `O=C(NCC(F)(F)F)c1coc(Cc2ccc(-c3noc(C(F)(F)F)n3)cc2)n1` [Compound 316, N-(2,2,2-trifluoroethyl)-2-[[4-[5-(trifluoromethyl)-1,2,4-oxadiazol-3-yl]phenyl]methyl]-4-oxazolecarboxamide], the melting point (in general, the temperature of the solid-liquid transition) lay in the range of 164 to 168 °C. For the same compound, the pest or weed control at 250 µg/mL in data set [1] (test suspension 250 ppm) was 5%. Besides, the pest or weed control at 10 µg/mL in data set [2] (test suspension 10 ppm, read-out: Test A disease control rating) is 100%. Further, the pest or weed control at 0.471 ppm in data set [3] (Phakopsora pachyrhizi, Compound 316 alone, 0.471 ppm, read-out: Test E Obsd) amounted to 24%. For the same compound, the pest or weed control at 0.764 ppm in data set [3] (Phakopsora pachyrhizi, Compound 316 alone, 0.764 ppm, read-out: Test E Obsd) came to 82%. Besides, in data set [3] (Phakopsora pachyrhizi, Table A-1, Compound 316 0.471 ppm alone, read-out: Test E Obsd (disease control rating)), the pest or weed control at 0.471 ppm worked out at 59%. In addition, the pest or weed control at 0.764 ppm in data set [3] (Phakopsora pachyrhizi, Table A-1, Compound 316 0.764 ppm alone, read-out: Test E Obsd (disease control rating)) was 75%. Besides, in data set [3] (Phakopsora pachyrhizi, Table B-1, Compound 316 0.471 ppm alone, read-out: Test E Obsd (disease control rating)), the pest or weed control at 0.471 ppm is 22%. The pest or weed control at 0.764 ppm in data set [3] (Phakopsora pachyrhizi, Table B-1, Compound 316 0.764 ppm alone, read-out: Test E Obsd (disease control rating)) stood at 54%. In data set [3] (Phakopsora pachyrhizi, Table C-1, Compound 316 0.471 ppm alone, read-out: Test E Obsd (disease control rating)), the pest or weed control at 0.471 ppm was found to be 49%. Further, in data set [3] (Phakopsora pachyrhizi, Table C-1, Compound 316 0.764 ppm alone, read-out: Test E Obsd (disease control rating)), the pest or weed control at 0.764 ppm stood at 66%. The pest or weed control at 0.471 ppm in data set [3] (Phakopsora pachyrhizi, Table D-1, Compound 316 0.471 ppm alone, read-out: Test E Obsd (disease control rating)) was found to be 20%. Further, the pest or weed control at 0.764 ppm in data set [3] (Phakopsora pachyrhizi, Table D-1, Compound 316 0.764 ppm alone, read-out: Test E Obsd (disease control rating)) was found to be 70%. Moreover, the pest or weed control at 0.471 ppm in data set [3] (Phakopsora pachyrhizi, Table F-1, Compound 316 0.471 ppm alone, read-out: Test E Obsd (disease control rating)) was 61%. In addition, the pest or weed control at 0.764 ppm in data set [3] (Phakopsora pachyrhizi, Table F-1, Compound 316 0.764 ppm alone, read-out: Test E Obsd (disease control rating)) turned out to be 68%. In data set [3] (Phakopsora pachyrhizi, Table G-1, Compound 316 0.471 ppm alone, read-out: Test E Obsd (disease control rating)), the pest or weed control at 0.471 ppm is 31%. Also, the pest or weed control at 0.764 ppm in data set [3] (Phakopsora pachyrhizi, Table G-1, Compound 316 0.764 ppm alone, read-out: Test E Obsd (disease control rating)) was 64%. In addition, the pest or weed control at 0.471 ppm in data set [3] (Phakopsora pachyrhizi, Table H-1, Compound 316 0.471 ppm alone, read-out: Test E Obsd (disease control rating)) was 44%. The pest or weed control at 0.764 ppm in data set [3] (Phakopsora pachyrhizi, Table H-1, Compound 316 0.764 ppm alone, read-out: Test E Obsd (disease control rating)) is 80%. Besides, the pest or weed control at 0.471 ppm in data set [3] (Table E-1, Compound 316 0.471 ppm alone, read-out: Test E Obsd (disease control rating)) turned out to be 61%. The pest or weed control at 0.764 ppm in data set [3] (Table E-1, Compound 316 0.764 ppm alone, read-out: Test E Obsd (disease control rating)) is 58%. In addition, the pest or weed control at 10 µg/mL in data set [4] (test suspension 10 ppm, read-out: Test C disease control rating) came to 100%.

With `COCCNC(=O)c1csc(Cc2ccc(-c3noc(C(F)(F)F)n3)cc2)n1` [Compound 394, N-(2-methoxyethyl)-2-[[4-[5-(trifluoromethyl)-1,2,4-oxadiazol-3-yl]phenyl]methyl]-4-thiazolecarboxamide], the melting point fell in the range of 83 to 87 °C. Moreover, the pest or weed control at 250 ppm in data set [1] was found to be 99%. In addition, the pest or weed control at 10 ppm in data set [2] is 100%. Moreover, the pest or weed control at 0.241 ppm in data set [3] (Phakopsora pachyrhizi, applied alone, 0.241 ppm, read-out: Test E Obsd) stood at 4%. In addition, in data set [4] (setting [5]), the pest or weed control at 10 ppm turned out to be 100%.

With `COCCNC(=O)c1noc(Cc2ccc(-c3noc(C(F)(F)F)n3)cc2)n1` [Compound 511, N-(2-methoxyethyl)-5-[[4-[5-(trifluoromethyl)-1,2,4-oxadiazol-3-yl]phenyl]methyl]-1,2,4-oxadiazole-3-carboxamide], the melting point was 80 to 85 °C. Besides, the pest or weed control at 250 ppm in data set [1] worked out at 90%. The pest or weed control at 250 ppm in data set [2] (250 ppm test suspension) turned out to be 100%. Also, in data set [3] (setting [6]), the pest or weed control at 2.436 ppm was determined as 21% and the pest or weed control at 4.926 ppm worked out at 68%. Also, in data set [3] (setting [7]), the pest or weed control at 2.436 ppm amounted to 40% and the pest or weed control at 4.926 ppm is 66%. The pest or weed control at 250 ppm in data set [4] (250 ppm test suspension, 100 = 100% disease control, 0 = no control) is 100%.

`Cn1nc(Cc2ccc(-c3noc(C(F)(F)F)n3)cc2)cc1C(=O)NCC(F)(F)F` [Compound 512, 1-methyl-N-(2,2,2-trifluoroethyl)-3-[[4-[5-(trifluoromethyl)-1,2,4-oxadiazol-3-yl]phenyl]methyl]-1H-pyrazole-5-carboxamide] returned a melting point of 156 to 160 °C. Besides, the pest or weed control at 250 ppm in data set [1] came to 98%. For the same compound, the pest or weed control at 10 ppm in data set [2] is 100%. For the same compound, in data set [3] (setting [8]), the pest or weed control at 1.893 ppm came out at 9% and the pest or weed control at 3.829 ppm turned out to be 58%. Also, in data set [3] (setting [7]), the pest or weed control at 1.893 ppm was 14% and the pest or weed control at 3.829 ppm came out at 66%. Moreover, the pest or weed control at 10 ppm in data set [4] (setting [5]) is 100%.

For the origin of these results see patent US20240090503A1, “FUNGICIDAL OXADIAZOLES AND THEIR MIXTURES” (FMC CORPORATION, priority 2020, published 2024).
